Data: patent US7834006B2, “Fused polycyclic compounds” (Ajinomoto Co., Inc., priority 2004, dated 2010)

Tested on: adipose cells of rats
Assay: Evaluation of the sugar transporting capacity (2-[14C(U)]-deoxy-D-glucose incorporation)
Type: cell-based
Settings: insulin 100 nM; rat adipose cells; 2-deoxy-D-glucose incorporation
Experimental: Preparation of Adipose Cells of Rats:
After the decapitation and venesection of 6 male Wistar rats (body weight: 150 to 200 g), an incision was made in the abdomen of each rat to extract 6 g in total of epididymal adipose tissues. The tissues were finely cut into 2 mm×2 mm pieces in 6 ml of KRH (Krebs-Ringer Hepes, composition: 130 mM of sodium chloride, 4.7 mM of potassium chloride, 1.2 mM of potassium dihydrogenphosphate, 1.2 mM of magnesium sulfate, 1 mM of calcium chloride and 25 mM of Hepes, pH=7.6) containing 5% of BSA (bovine serum albumin). 24 mg of collagenase (type I) was added thereto and the digestion treatment was conducted for about 40 minutes to obtain about 6 ml of isolated adipose cells. The collagenase was removed by the buffer exchange. 2% BSA/KRH solution was added to the residue for the re-suspension to obtain 45 ml of an adipose cell suspension.
Evaluation of the Sugar Transporting Capacity: […]
The sugar transporting capacity was evaluated by measuring the quantity of 2-[^14C(U)]-deoxy-D-glucose incorporated per a unit time. […] The quantity of 2-[^14C(U)]-deoxy-D-glucose contained in the adipose cell layer was determined with a liquid scintillation counter to determine the quantity of the incorporated sugar.

insulin
effect of increasing the sugar-transporting capacity versus insulin-free control group: about 7 times
